According to patent US11578055B2, “Triazacyclododecansulfonamide (“TCD”)-based protein secretion inhibitors” (KEZAR LIFE SCIENCES, priority 2018, dated 2023):
Where two headings read alike, the source gives them in different places.

Experiments:
[1] = test system: full length TNFα (amino acids 1-233) fused to Gaussia Luciferase; assay: Dox Induced TNFα-FL-Gluc Assay; format: cell-based; details: 24 hr, read-out: 24 hr Dox Inducible TNFaFLGluc 293FRT/TO: Mean IC50
How it was run: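 Stable Flp-In 293 T-REx line expressing doxycycline-inducible full-length TNFα fused to Gaussia luciferase; cells plated the day before, then treated with compound dilutions in doxycycline-containing medium at 37° C, 5% CO2. Unspecified stereocentres mean stereoisomer mixtures were tested.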

[2] = test system: full length IL-2 (amino acids 1-153) fused to Gaussia Luciferase; assay: Dox Induced IL2-FL-Gluc Assay; format: cell-based; details: 24 hr, read-out: 24 hr Dox Inducible IL2FLGluc 293FRT/TO: Mean IC50
How it was run: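 Flp-In 293 T-REx stable line expressing full-length IL-2 (aa 1-153) with C-terminal Gaussia luciferase fusion under doxycycline-inducible control. Cells plated the day before; compound dilutions added in DMSO/media containing doxycycline, incubated at 37° C, 5% CO2.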

[3] = In Vitro Microsome Stability Assay (human); format: in vitro ADME
How it was run: (§1)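 Species liver microsomes in potassium phosphate buffer were preincubated at 37 °C for 3–5 min with test compound (added from 0.25 mM DMSO stock), then started with NADPH. Samples at 0 and 30 min were quenched with acetonitrile containing internal standard and analysed by LC-MS/MS; % remaining at 30 min used analyte/IS AUC ratios relative to t=0.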

[4] = In Vitro Microsome Stability Assay (rat); format: in vitro ADME
How it was run: as §1

[5] = test system: target signal sequences plus 10 amino acids fused to Gaussia Luciferase; assay: Transiently Expressed Dox Induced Signal Sequence-Gluc Assay; format: cell-based; details: read-out: Signal Sequence-Gluc potency
Protocol: FIp-In 293 T-REx™ cells were transfected with 500 ng pcDNA™5/FRT/TO plasmids inserted with cDNA encoding Gaussia Luciferase fused to the 3′ end of cDNA encoding target signal sequences plus 10 amino acids. Transfected cells were incubated overnight then cells were trypsinized and plated in 384-well tissue culture plates. The next day, compound dilutions in DMSO/media containing doxycycline were added to the wells and incubated at 37° C., 5% CO2.

[6] = test system: IL-6; assay: Human PBMC Cytokine Assay: IL-6; format: cell-based; details: LPS stimulation, 24 hours
Protocol: (§2) Human PBMC were freshly isolated from whole blood collections of 3 normal donors utilizing density gradient centrifugation followed by red blood cell lysis. PBMC from each donor were assayed separately. Cells were suspended in RPMI 1640 media supplemented with 5% fetal bovine serum, 2 mM L-glutamine, 10 mM HEPES, and 1× penicillin/streptomycin. PBMC were seeded at 200,000 cells/well in 96-well round-bottom plates either without stimulation or with stimulation by lipopolysaccharide (LPS, 1 μg/mL) or antibodies against human CD3 (plate-bound, 2 μg/mL) and human CD28 (soluble, 2 μg/mL). Serial dilutions of compound in DMSO/media were simultaneously added and PBMC were incubated at 37° C., 5% CO2 for 24 hours. After 24 hours, plates were centrifuged and half of the supernatant volume removed for cytokine analysis by electrochemiluminescent immunoassay (U-PLEX® Biomarker Multiplex, Meso Scale Discovery). For viability analysis, CellTiter-Glo® (Promega) was added to the remaining material in each well and quantified via luminescent plate reader.

[7] = test system: IL-23; assay: Human PBMC Cytokine Assay: IL-23; format: cell-based; details: LPS stimulation, 24 hours
Protocol: as §2

[8] = test system: TNFα; assay: Human PBMC Cytokine Assay: TNFα; format: cell-based; details: anti-CD3/CD28 stimulation, 24 hours
Protocol: as §2

[9] = Target ADAM10 signal peptide +10 amino acids
[10] = Target B7H3 signal peptide +10 amino acids
[11] = Target CD73 signal peptide +10 amino acids
[12] = Target CD96 signal peptide +10 amino acids
[13] = Target CTLA-4 signal peptide +10 amino acids
[14] = Target EGFR signal peptide +10 amino acids
[15] = Target GP130 signal peptide +10 amino acids
[16] = Target HER3 signal peptide +10 amino acids
[17] = Target IFN-a1 signal peptide +10 amino acids
[18] = Target IFN-a2 signal peptide +10 amino acids
[19] = Target IFN-a4 signal peptide +10 amino acids
[20] = Target IFN-b signal peptide +10 amino acids
[21] = Target IFNAR1 signal peptide +10 amino acids
[22] = Target IFNAR2 signal peptide +10 amino acids
[23] = Target IL-1R1 signal peptide +10 amino acids
[24] = Target IL-1R2 signal peptide +10 amino acids
[25] = Target IL-1Ra (isoform 1) signal peptide +10 amino acids
[26] = Target IL-2Ra (CD25) signal peptide +10 amino acids
[27] = Target IL-6R signal peptide +10 amino acids
[28] = Target IL-6 signal peptide +10 amino acids
[29] = Target IL-7R signal peptide +10 amino acids
[30] = Target IL-12b (p40) signal peptide +10 amino acids
[31] = Target IL-17Ra signal peptide +10 amino acids
[32] = Target IL-17a signal peptide +10 amino acids
[33] = Target IL-23R signal peptide +10 amino acids
[34] = Target IL-23a signal peptide +10 amino acids
[35] = Target LAG3 signal peptide +10 amino acids
[36] = Target PD-L1 signal peptide +10 amino acids
[37] = Target PDGFRa signal peptide +10 amino acids
[38] = Target TACE (ADAM17) signal peptide +10 amino acids
[39] = Target TIGIT signal peptide +10 amino acids
[40] = Target TIM3 signal peptide +10 amino acids
[41] = Target TNFR1 signal peptide +10 amino acids
[42] = Target TNFR2 signal peptide +10 amino acids
[43] = Target VEGF signal peptide +10 amino acids
[44] = Target VGFR2 signal peptide +10 amino acids
[45] = Target VISTA signal peptide +10 amino acids
[46] = human liver microsomes, 30 min w/ NADPH
[47] = rat liver microsomes, 30 min w/ NADPH

Which IC50 ([1]; 293FRT/TO) does the source give for `C[C@H]1CN(S(=O)(=O)c2ccc(N(C)C)cc2)CCCN(CC2CCCCC2)CCCN(S(=O)(=O)N2CCc3cc(Cl)ccc3C2)C1` [A87] here?
The IC50 was 492 nM.

And the IC50 ([2]; 293FRT/TO)?
Its IC50 is 50.2 nM.

What about the “Liver Microsome Stability-% Left after 30 min w/ NADPH (%) Human” value ([3]; human, 30 min, NADPH) of the same compound?
The value was 39.7%.

And the “Liver Microsome Stability-% Left after 30 min w/ NADPH (%) Rat” value ([4]; rat, 30 min, NADPH)?
Its value is 43.6%.

And the IC50 [5, 9]?
Its IC50 is 231 nM.

What about the IC50 [5, 10] of the same compound?
The IC50 was 27 nM.

What about the IC50 [5, 11] of the same compound?
The IC50 was 58 nM.

What about the IC50 [5, 12] of the same compound?
Its IC50 is 12 nM.

What about the IC50 [5, 13] of the same compound?
The IC50 was 259 nM.

What about the IC50 [5, 14] of the same compound?
The IC50 was 60 nM.

What about the IC50 [5, 15] of the same compound?
The IC50 was 201 nM.

What about the IC50 [5, 16] of the same compound?
The IC50 was 89 nM.

What about the IC50 [5, 17] of the same compound?
The IC50 was 128 nM.

And the IC50 [5, 18]?
The IC50 was 51 nM.

What about the IC50 [5, 19] of the same compound?
Its IC50 is 221 nM.

What about the IC50 [5, 20] of the same compound?
Its IC50 is 818 nM.

And the IC50 [5, 21]?
Its IC50 is 14 nM.

What about the IC50 [5, 22] of the same compound?
Its IC50 is 133 nM.

What about the IC50 [5, 23] of the same compound?
The IC50 was 374 nM.

And the IC50 [5, 24]?
Its IC50 is 23 nM.

And the IC50 [5, 25]?
Its IC50 is 111 nM.

What about the IC50 [5, 26] of the same compound?
Its IC50 is 159 nM.

What about the IC50 [5, 27] of the same compound?
Its IC50 is 78 nM.

What about the IC50 [5, 28] of the same compound?
Its IC50 is 66 nM.

What about the IC50 [5, 29] of the same compound?
The IC50 was 58 nM.

And the IC50 [5, 30]?
The IC50 was 155 nM.

What about the IC50 [5, 31] of the same compound?
Its IC50 is 424 nM.

And the IC50 [5, 32]?
Its IC50 is 447 nM.

What about the IC50 [5, 33] of the same compound?
The IC50 was 111 nM.

And the IC50 [5, 34]?
Its IC50 is 567 nM.

What about the IC50 [5, 35] of the same compound?
The IC50 was 75 nM.

What about the IC50 [5, 36] of the same compound?
Its IC50 is 56 nM.

And the IC50 [5, 37]?
Its IC50 is 90 nM.

What about the IC50 [5, 38] of the same compound?
Its IC50 is 66 nM.

And the IC50 [5, 39]?
The IC50 was 162 nM.

And the IC50 [5, 40]?
The IC50 was 282 nM.

And the IC50 [5, 41]?
The IC50 was 307 nM.

And the IC50 [5, 42]?
Its IC50 is 564 nM.

What about the IC50 [5, 43] of the same compound?
The IC50 was 111 nM.

And the IC50 [5, 44]?
Its IC50 is 684 nM.

And the IC50 [5, 45]?
Its IC50 is 211 nM.

What about the IC50 [6] of the same compound?
The IC50 was 61 nM.

What about the IC50 [7] of the same compound?
Its IC50 is 200 nM.

And the IC50 [8]?
The IC50 was 82 nM.

What does the source list for `C[C@H]1CN(S(=O)(=O)c2ccc(N(C)C)cc2)CCCN(CC2CCCCC2)CCCN(S(=O)(=O)N2CCc3c(C#N)cccc3C2)C1` [A151, 2-{[(3S)-9-(cyclohexylmethyl)-5-[4-(dimethylamino)benzenesulfonyl]-3-methyl-1,5,9-triazacyclododecan-1-yl]sulfonyl}-1,2,3,4-tetrahydroisoquinoline-5-carbonitrile]?
IC50 ([1]; Dox inducible, 293FRT/TO cells): 1220 nM; IC50 ([2]; Dox inducible, 293FRT/TO cells): 306 nM; Liver Microsome Stability-% Left after 30 min w/ NADPH (%) Human [3, 46]: 4.28%; Liver Microsome Stability-% Left after 30 min w/ NADPH (%) Rat [4, 47]: 4.2%; IC50 [5, 9]: 849 nM; IC50 [5, 10]: 201 nM; IC50 [5, 11]: 375 nM; IC50 [5, 12]: 107 nM; IC50 [5, 13]: 1140 nM; IC50 [5, 14]: 412 nM; IC50 [5, 15]: 969 nM; IC50 [5, 16]: 522 nM; IC50 [5, 17]: 820 nM; IC50 [5, 18]: 404 nM; IC50 [5, 19]: 1130 nM; IC50 [5, 20]: 4300 nM; IC50 [5, 21]: 145 nM; IC50 [5, 22]: 778 nM; IC50 [5, 23]: 1470 nM; IC50 [5, 24]: 168 nM; IC50 [5, 25]: 666 nM; IC50 [5, 26]: 876 nM; IC50 [5, 27]: 445 nM; IC50 [5, 28]: 437 nM; IC50 [5, 29]: 392 nM; IC50 [5, 30]: 913 nM; IC50 [5, 31]: 1860 nM; IC50 [5, 32]: 1820 nM; IC50 [5, 33]: 666 nM; IC50 [5, 34]: 1920 nM; IC50 [5, 35]: 464 nM; IC50 [5, 36]: 366 nM; IC50 [5, 37]: 565 nM; IC50 [5, 38]: 391 nM; IC50 [5, 39]: 737 nM; IC50 [5, 40]: 1350 nM; IC50 [5, 41]: 1620 nM; IC50 [5, 42]: 2110 nM; IC50 [5, 43]: 645 nM; IC50 [5, 44]: 2590 nM; IC50 [5, 45]: 911 nM

What does the source list for `COc1cc(F)ccc1N1CCN(S(=O)(=O)N2CCCN(CC3CCCCC3)CCCN(S(=O)(=O)c3ccc(N(C)C)cc3)C[C@H](C)C2)C[C@H]1C` [A177, 4-{[(3S)-9-(cyclohexylmethyl)-5-{[(3 R)-4-(4-fluoro-2-methoxyphenyl)-3-methylpiperazin-1-yl]sulfonyl}-3-methyl-1,5,9-triazacyclododecan-1-yl]sulfonyl}-N,N-dimethylaniline]?
IC50 ([1]; Dox inducible, 293FRT/TO cells): 155 nM; IC50 ([2]; Dox inducible, 293FRT/TO cells): 12.6 nM; Liver Microsome Stability-% Left after 30 min w/ NADPH (%) Human [3, 46]: 13.7%; Liver Microsome Stability-% Left after 30 min w/ NADPH (%) Rat [4, 47]: 14.5%; IC50 [6]: 24 nM; IC50 [7]: 54 nM; IC50 [8]: 13 nM
